Common to all, as to test: relative viability (nuclei count vs DMSO), 5 days (fraction); higher = more cells survive
Compound in assay [1]: CC1(C)CCC(CN2CCN(c3ccc(C(=O)NS(=O)(=O)c4ccc(NCC5CCOCC5)c([N+](=O)[O-])c4)c(Oc4cnc5[nH]ccc5c4)c3)CC2)=C(c2ccc(Cl)cc2)C1 [Venetoclax] + O=C(c1cc(Cc2n[nH]c(=O)c3ccccc23)ccc1F)N1CCN(C(=O)C2CC2)CC1 [Olaparib] (partner 8 µM)
The method, boiled down: (§1)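 After 5 days of treatment, lung cancer cells in 1536-well plates were fixed and stained in a single step (final 0.05% Triton X-100, 1% formaldehyde, 1 ug/ml Hoechst) and their nuclei counted on 4× images. Treatment had been applied by pin tool the day after seeding as one drug alone or as a fixed anchor-drug dose with five library-drug doses (not always all listed) in √10 steps. Relative viability is the nuclei count of treated wells divided by that of vehicle wells, and values are medians of duplicate plates.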

Compound in assay [2]: Cn1cnc2c(F)c(Nc3ccc(Br)cc3Cl)c(C(=O)NOCCO)cc21 [Selumetinib] + COc1cccc2cc(-c3nc([C@H]4CC[C@H](C(=O)O)CC4)n4ncnc(N)c34)[nH]c12 [OSI-027] (partner 0.5 µM)
A digest of the protocol: as §1

Compound in assay [3]: Cn1cnc2c(F)c(Nc3ccc(Br)cc3Cl)c(C(=O)NOCCO)cc21 [Selumetinib] + CC(=O)Nc1cccc(-n2c(=O)n(C3CC3)c(=O)c3c(Nc4ccc(I)cc4F)n(C)c(=O)c(C)c32)c1 [Trametinib] (partner 0.02 µM)
A digest of the protocol:
as §1

Compound in assay [4]: Cn1cnc2c(F)c(Nc3ccc(Br)cc3Cl)c(C(=O)NOCCO)cc21 [Selumetinib] + C[C@@H](Oc1cc(-c2cnn(C3CCNCC3)c2)cnc1N)c1c(Cl)ccc(F)c1Cl [Crizotinib] (partner 1 µM)
A digest of the protocol: as §1

These results are taken from the supplement of paper PMC10307832.

With NCI-H460, the relative viability in assay [1] (first compound 0.01 µM) turned out to be 0.39; in assay [1] (first compound 0.03162 µM) it was 0.414; in assay [1] (first compound 0.1 µM), 0.359; in assay [1] (first compound 0.3162 µM) it was 0.44; in assay [1] (first compound 1 µM) it was 0.398; in assay [2] (first compound 0.02 µM) it was 0.52. The relative viability in assay [2] (first compound 0.06325 µM) is 0.425; in assay [2] (first compound 0.2 µM), 0.227; in assay [2] (first compound 0.6325 µM), 0.225; in assay [3] (first compound 0.02 µM), 0.115; in assay [3] (first compound 0.06325 µM), 0.139; in assay [3] (first compound 0.2 µM), 0.138. Also, the relative viability is 0.104 in assay [3] (first compound 0.6325 µM); 0.852 in assay [4] (first compound 0.02 µM); 0.714 in assay [4] (first compound 0.06325 µM); 0.672 in assay [4] (first compound 0.2 µM); 0.544 in assay [4] (first compound 0.6325 µM).

For the cell line NCI-H2170, the relative viability in assay [1] (first compound 0.01 µM) came out at 0.57; in assay [1] (first compound 0.03162 µM), 0.639; in assay [1] (first compound 0.1 µM), 0.573; in assay [1] (first compound 0.3162 µM) it was 0.615; in assay [1] (first compound 1 µM) it was 0.591; in assay [2] (first compound 0.02 µM), 0.712. The relative viability was 0.714 in assay [2] (first compound 0.06325 µM); 0.664 in assay [2] (first compound 0.2 µM); 0.684 in assay [2] (first compound 0.6325 µM); 0.934 in assay [3] (first compound 0.02 µM); 0.957 in assay [3] (first compound 0.06325 µM); 0.853 in assay [3] (first compound 0.2 µM). In addition, the relative viability in assay [3] (first compound 0.6325 µM) is 0.921; in assay [4] (first compound 0.02 µM) it was 1.17; in assay [4] (first compound 0.06325 µM) it was 1.11; in assay [4] (first compound 0.2 µM), 1.03; in assay [4] (first compound 0.6325 µM) it was 1.15.

In the case of LC-2-ad, the relative viability amounted to 0.735 in assay [1] (first compound 0.01 µM); 0.696 in assay [1] (first compound 0.03162 µM); 0.664 in assay [1] (first compound 0.1 µM); 0.702 in assay [1] (first compound 0.3162 µM); 0.708 in assay [1] (first compound 1 µM); 0.828 in assay [2] (first compound 0.02 µM). In addition, the relative viability came out at 0.662 in assay [2] (first compound 0.06325 µM); 0.631 in assay [2] (first compound 0.2 µM); 0.726 in assay [2] (first compound 0.6325 µM); 0.954 in assay [3] (first compound 0.02 µM); 0.88 in assay [3] (first compound 0.06325 µM); 0.822 in assay [3] (first compound 0.2 µM). In addition, the relative viability in assay [3] (first compound 0.6325 µM) came to 0.9; in assay [4] (first compound 0.02 µM) it was 0.397; in assay [4] (first compound 0.06325 µM), 0.446; in assay [4] (first compound 0.2 µM), 0.431; in assay [4] (first compound 0.6325 µM), 0.405.

In the case of NCI-H358, the relative viability in assay [1] (first compound 0.01 µM) was found to be 0.567; in assay [1] (first compound 0.03162 µM), 0.651; in assay [1] (first compound 0.1 µM) it was 0.575; in assay [1] (first compound 0.3162 µM), 0.773; in assay [1] (first compound 1 µM), 0.579; in assay [2] (first compound 0.02 µM), 0.435. Besides, the relative viability came out at 0.359 in assay [2] (first compound 0.06325 µM); 0.312 in assay [2] (first compound 0.2 µM); 0.279 in assay [2] (first compound 0.6325 µM); 0.125 in assay [3] (first compound 0.02 µM); 0.134 in assay [3] (first compound 0.06325 µM); 0.121 in assay [3] (first compound 0.2 µM). In addition, the relative viability was 0.11 in assay [3] (first compound 0.6325 µM); 0.467 in assay [4] (first compound 0.02 µM); 0.368 in assay [4] (first compound 0.06325 µM); 0.326 in assay [4] (first compound 0.2 µM); 0.319 in assay [4] (first compound 0.6325 µM).

As for PC-3 [JPC-3], the relative viability was 1.15 in assay [1] (first compound 0.01 µM); 1.19 in assay [1] (first compound 0.03162 µM); 1.21 in assay [1] (first compound 0.1 µM); 1.15 in assay [1] (first compound 0.3162 µM); 1.04 in assay [1] (first compound 1 µM); 0.712 in assay [2] (first compound 0.02 µM). Further, the relative viability was 0.752 in assay [2] (first compound 0.06325 µM); 0.749 in assay [2] (first compound 0.2 µM); 0.787 in assay [2] (first compound 0.6325 µM); 0.65 in assay [3] (first compound 0.02 µM); 0.641 in assay [3] (first compound 0.06325 µM); 0.685 in assay [3] (first compound 0.2 µM). Besides, the relative viability was determined as 0.656 in assay [3] (first compound 0.6325 µM); 0.98 in assay [4] (first compound 0.02 µM); 0.904 in assay [4] (first compound 0.06325 µM); 0.905 in assay [4] (first compound 0.2 µM); 0.774 in assay [4] (first compound 0.6325 µM).

Turning to CAL-12T, the relative viability in assay [1] (first compound 0.01 µM) was 0.675; in assay [1] (first compound 0.03162 µM), 0.715; in assay [1] (first compound 0.1 µM), 0.732; in assay [1] (first compound 0.3162 µM) it was 0.709; in assay [1] (first compound 1 µM), 0.634; in assay [2] (first compound 0.02 µM) it was 0.636. For the same cell line, the relative viability in assay [2] (first compound 0.06325 µM) was 0.492; in assay [2] (first compound 0.2 µM), 0.516; in assay [2] (first compound 0.6325 µM), 0.395; in assay [3] (first compound 0.02 µM), 0.282; in assay [3] (first compound 0.06325 µM), 0.343; in assay [3] (first compound 0.2 µM) it was 0.285. In addition, the relative viability worked out at 0.298 in assay [3] (first compound 0.6325 µM); 0.621 in assay [4] (first compound 0.02 µM); 0.573 in assay [4] (first compound 0.06325 µM); 0.704 in assay [4] (first compound 0.2 µM); 0.597 in assay [4] (first compound 0.6325 µM).
